Results as given in US12540120B2, “Herbicidal compounds” (SYNGENTA CROP PROTECTION AG, priority 2019, dated 2026).

Experiments:
Format in all cases: in vivo
[1] = tested on: Amaranthus retoflexus (AMARE); experiment: B2 Post-Emergence Efficacy—Test 2; conditions: post-emergence application, 250 g/ha, evaluated after 13 days (Test 2)
Outline: (§1)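 Damage scores (five-point scale, 5=80-100%, 4=60-79%, 3=40-59%, 2=20-39%, 1=0-19%) reflect percentage injury 13 days after treatment. Plants received 250 g/ha as a post-emergence spray at 8 days after sowing.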

[2] = tested on: Echinochloa crus-galli (ECHCG); experiment: B2 Post-Emergence Efficacy—Test 2; conditions: post-emergence application, 250 g/ha, evaluated after 13 days (Test 2)
Outline: as §1

[3] = tested on: Ipomoea hederacea (IPOHE); experiment: B2 Post-Emergence Efficacy—Test 2; conditions: post-emergence application, 250 g/ha, evaluated after 13 days (Test 2)
Outline: as §1

Lolium perenne (LOLPE) [4] = experiment: B2 Post-Emergence Efficacy—Test 2; conditions: post-emergence application, 250 g/ha, evaluated after 13 days (Test 2)
Outline: as §1

Setaria faberi (SETFA) [5] = experiment: B2 Post-Emergence Efficacy—Test 2; conditions: post-emergence application, 250 g/ha, evaluated after 13 days (Test 2)
Outline: as §1

Solanum nigrum (SOLNI) [6] = experiment: B2 Post-Emergence Efficacy—Test 2; conditions: post-emergence application, 250 g/ha, evaluated after 13 days (Test 2)
Outline: as §1

[7] = tested on: Amaranthus retoflexus (AMARE); experiment: B5 Pre-Emergence Efficacy—Test 2; conditions: 250 g/ha, evaluated after 13 days
Outline: (§2)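 Damage rated 13 days after treatment on a 1–5 scale (1=0-19%, 5=80-100%). Compounds applied at 250 g/ha as an acetone/water (50:50) spray containing 0.5% Tween 20, one day after sowing in soil, with glasshouse conditions of 24/16° C, 14 h light and 65% humidity.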

Solanum nigrum (SOLNI) [8] = experiment: B5 Pre-Emergence Efficacy—Test 2; conditions: 250 g/ha, evaluated after 13 days
Outline: as §2

[9] = tested on: Echinochloa crus-galli (ECHCG); experiment: B5 Pre-Emergence Efficacy—Test 2; parameters: key: 5-point scale: 5=80-100%, 4=60-79%, 3=40-59%, 2=20-39%, 1=0-19% damage; conditions: 250 g/ha, evaluated after 13 days
Outline: as §2

[10] = tested on: Ipomoea hederacea (IPOHE); experiment: B5 Pre-Emergence Efficacy—Test 2; parameters: key: 5-point scale: 5=80-100%, 4=60-79%, 3=40-59%, 2=20-39%, 1=0-19% damage; conditions: 250 g/ha, evaluated after 13 days
Outline: as §2

Lolium perenne (LOLPE) [11] = experiment: B5 Pre-Emergence Efficacy—Test 2; parameters: key: 5-point scale: 5=80-100%, 4=60-79%, 3=40-59%, 2=20-39%, 1=0-19% damage; conditions: 250 g/ha, evaluated after 13 days
Outline: as §2

Setaria faberi (SETFA) [12] = experiment: B5 Pre-Emergence Efficacy—Test 2; parameters: key: 5-point scale: 5=80-100%, 4=60-79%, 3=40-59%, 2=20-39%, 1=0-19% damage; conditions: 250 g/ha, evaluated after 13 days
Outline: as §2

Compound	percentage damage caused to the plant, five point scale, AMARE [1]	percentage damage caused to the plant, five point scale, ECHCG [2]	percentage damage caused to the plant, five point scale, IPOHE [3]	percentage damage caused to the plant, five point scale, LOLPE (Lolium perenne (LOLPE) [4])	percentage damage caused to the plant, five point scale, SETFA (Setaria faberi (SETFA) [5])	percentage damage caused to the plant, five point scale, SOLNI (Solanum nigrum (SOLNI) [6])	Control of weed species after pre-emergence application, AMARE (percentage damage, five point scale) [7]	Control of weed species after pre-emergence application, SOLNI (percentage damage, five point scale) (Solanum nigrum (SOLNI) [8])	Control of weed species after pre-emergence application, ECHCG (percentage damage, five point scale) [9]	Control of weed species after pre-emergence application, IPOHE (percentage damage, five point scale) [10]	Control of weed species after pre-emergence application, LOLPE (percentage damage, five point scale) (Lolium perenne (LOLPE) [11])	Control of weed species after pre-emergence application, SETFA (percentage damage, five point scale) (Setaria faberi (SETFA) [12])
Cc1nn(C)c(=O)c(-c2c(F)ccc(Cl)c2/C=C/c2ccc(OC(C)(C)C)cc2)c1OC(=O)C(C)C [Compound A-4.035]	1 (1=0-19%)	0	3 (3=40-59%)	0	0	3 (3=40-59%)	0	0	1 (1=0-19%)	1 (1=0-19%)	1 (1=0-19%)	0
CC(=O)Nc1ccc(CCc2c(Cl)ccc(F)c2-c2c(O)c(C)nn(C)c2=O)cc1 [Compound A-1.024]	5 (5=80-100%)	4 (4=60-79%)	5 (5=80-100%)	5 (5=80-100%)	5 (5=80-100%)	5 (5=80-100%)	5 (5=80-100%)	5 (5=80-100%)	2 (2=20-39%)	0	4 (4=60-79%)	5 (5=80-100%)
CCN(C)C(=O)c1ccc(CCc2c(Cl)ccc(F)c2-c2c(O)c(C)nn(C)c2=O)cc1F [Compound A-1.028, 4-[2-[6-chloro-3-fluoro-2-(5-hydroxy-2,6-dimethyl-3-oxo-pyridazin-4-yl)phenyl]ethyl]-N-ethyl-2-fluoro-N-methyl-benzamide]	5 (5=80-100%)	5 (5=80-100%)	5 (5=80-100%)	5 (5=80-100%)	5 (5=80-100%)	5 (5=80-100%)	5 (5=80-100%)	5 (5=80-100%)	4 (4=60-79%)	5 (5=80-100%)	5 (5=80-100%)	5 (5=80-100%)
Cc1nn(C)c(=O)c(-c2c(F)ccc(Cl)c2/C=C/c2ccc(O)cc2)c1O [Compound A-2.037]	1 (1=0-19%)	2 (2=20-39%)	2 (2=20-39%)	1 (1=0-19%)	1 (1=0-19%)	2 (2=20-39%)	0	0	0	1 (1=0-19%)	1 (1=0-19%)	1 (1=0-19%)
Cc1nn(C)c(=O)c(-c2c(F)ccc(Cl)c2CCc2ccc(C3CC3)cc2)c1O [Compound A-1.038]	5 (5=80-100%)	5 (5=80-100%)	5 (5=80-100%)	5 (5=80-100%)	5 (5=80-100%)	5 (5=80-100%)	5 (5=80-100%)	5 (5=80-100%)	5 (5=80-100%)	2 (2=20-39%)	5 (5=80-100%)	0
CC(=O)Nc1cc(CCc2c(Cl)ccc(F)c2-c2c(O)c(C)nn(C)c2=O)ccn1 [Compound A-1.044]	5 (5=80-100%)	3 (3=40-59%)	0	4 (4=60-79%)	5 (5=80-100%)	5 (5=80-100%)	5 (5=80-100%)	5 (5=80-100%)	3 (3=40-59%)	1 (1=0-19%)	2 (2=20-39%)	5 (5=80-100%)
Cc1nn(C)c(=O)c(-c2c(F)ccc(Cl)c2CCc2ccc(N(C)C)cc2)c1O [Compound A-1.033]	5 (5=80-100%)	4 (4=60-79%)	5 (5=80-100%)	5 (5=80-100%)	5 (5=80-100%)	5 (5=80-100%)	1 (1=0-19%)	1 (1=0-19%)	0	1 (1=0-19%)	1 (1=0-19%)	2 (2=20-39%)
Cc1nn(C)c(=O)c(-c2c(F)ccc(Cl)c2CCc2ccccc2C#N)c1OC(=O)C(C)C [Compound A-3.029]	4 (4=60-79%)	1 (1=0-19%)	5 (5=80-100%)	2 (2=20-39%)	2 (2=20-39%)	5 (5=80-100%)	4 (4=60-79%)	5 (5=80-100%)	3 (3=40-59%)	3 (3=40-59%)	2 (2=20-39%)	2 (2=20-39%)
Cc1nn(C)c(=O)c(-c2c(F)ccc(Cl)c2/C=C/c2ccc(C#N)cc2)c1OC(=O)C(C)C [Compound A-4.036, [5-[3-Chloro-2-[(E)-2-(4-cyanophenyl)vinyl]-6-fluoro-phenyl]-1,3-dimethyl-6-oxo-pyridazin-4-yl] 2-methylpropanoate]	2 (2=20-39%)	3 (3=40-59%)	4 (4=60-79%)	3 (3=40-59%)	1 (1=0-19%)	5 (5=80-100%)	2 (2=20-39%)	5 (5=80-100%)	1 (1=0-19%)	3 (3=40-59%)	1 (1=0-19%)	0
